In the supplement of paper PMC10307832:

Key:
Experiment in all cases: relative viability (nuclei count vs DMSO), 5 days (fraction); higher = more cells survive
[1] = compound: C1=CC=C2C(=C1)N=C(S2)C(C#N)C3=NC(=NC=C3)NCCC4=CN=CC=C4 + Cc1cc(Nc2cc(N3CCN(C)CC3)nc(Sc3ccc(NC(=O)C4CC4)cc3)n2)n[nH]1 [Tozasertib] (partner 0.1 µM)
Summary of the method: (§1)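 The day after seeding in 1536-well plates, lung cancer cell lines were treated by pin tool with a single drug, or with a fixed anchor-drug dose together with five library-drug doses (not always all listed) in √10 steps. After 5 days, a combined fix-and-stain solution (final 0.05% Triton X-100, 1% formaldehyde, 1 ug/ml Hoechst) was added. Nuclei counted on 4× images gave relative viability as treated counts over vehicle counts, reported as the median of duplicate plates.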

[2] = compound: C#Cc1cccc(Nc2ncnc3cc(OC)c(OCCCCCCC(=O)NO)cc23)c1 [CUDC-101] + N=C(N)NC(=N)NCCc1ccccc1 [Phenformin] (partner 250 µM)
Summary of the method: as §1

[3] = compound: C#Cc1cccc(Nc2ncnc3cc(OC)c(OCCCCCCC(=O)NO)cc23)c1 [CUDC-101] + C[C@]1(O)C[C@@H](c2nc(-c3ccc4ccc(-c5ccccc5)nc4c3)c3c(N)nccn32)C1 [Linsitinib] (partner 1 µM)
Summary of the method: as §1

[4] = compound: C#Cc1cccc(Nc2ncnc3cc(OC)c(OCCCCCCC(=O)NO)cc23)c1 [CUDC-101] + CC1(C)CCC(c2ccc(Cl)cc2)=C(CN2CCN(c3ccc(C(=O)NS(=O)(=O)c4ccc(N[C@H](CCN5CCOCC5)CSc5ccccc5)c(S(=O)(=O)C(F)(F)F)c4)cc3)CC2)C1 [Navitoclax] (partner 0.5 µM)
Summary of the method: as §1

Cell Line	relative viability ([1]; first compound 0.005 µM)	relative viability ([1]; first compound 0.01581 µM)	relative viability ([1]; first compound 0.05 µM)	relative viability ([1]; first compound 0.1581 µM)	relative viability ([1]; first compound 0.5 µM)	relative viability ([2]; first compound 0.01 µM)	relative viability ([2]; first compound 0.03162 µM)	relative viability ([2]; first compound 0.1 µM)	relative viability ([2]; first compound 0.3162 µM)	relative viability ([2]; first compound 1 µM)	relative viability ([3]; first compound 0.01 µM)	relative viability ([3]; first compound 0.03162 µM)	relative viability ([3]; first compound 0.1 µM)	relative viability ([3]; first compound 0.3162 µM)	relative viability ([3]; first compound 1 µM)	relative viability ([4]; first compound 0.01 µM)	relative viability ([4]; first compound 0.03162 µM)	relative viability ([4]; first compound 0.1 µM)	relative viability ([4]; first compound 0.3162 µM)	relative viability ([4]; first compound 1 µM)
NCI-H2342	0.403	0.522	0.499	0.47	0.456	0.619	0.621	0.667	0.643	0.43	–	–	–	–	–	–	–	–	–	–
NCI-H661	0.365	0.332	0.342	0.355	0.392	0.284	0.291	0.291	0.311	0.246	0.64	0.487	0.74	0.681	0.675	–	–	–	–	–
SW 900	0.452	0.489	0.5	0.489	0.362	0.666	0.538	0.687	0.499	0.643	–	–	–	–	–	–	–	–	–	–
IA-LM	–	–	–	–	–	–	–	–	–	–	0.676	0.665	0.365	0.544	0.548	0.685	0.806	0.698	0.832	0.281
NCI-H522	0.458	0.553	0.501	0.573	0.537	0.677	0.688	0.777	0.744	0.572	–	–	–	–	–	–	–	–	–	–
NCI-H358	0.084	0.0964	0.0992	0.109	0.0865	0.378	0.346	0.32	0.312	0.193	0.849	0.71	0.793	0.646	0.323	–	–	–	–	–
NCI-H1299	–	–	–	–	–	–	–	–	–	–	0.905	0.99	0.936	0.994	0.973	1.05	0.992	1.12	1.06	1.02
